One assay has as its target PI3-Kα (Mus musculus (Mouse), UniProt P42337). The assay is described as follows: PI3-Kα Biochemical Assay (fluorescence polarization kinase assay). The procedure: Compounds of the present invention were evaluated for potency against PI3-Kα using an in vitro kinase assay. PI3-Kα activity is measured in vitro by determining the level of phosphorylation of the substrate PI(4,5)P2. The formation of product PI(3,4,5)P3 is monitored by binding to the Grip1 PH domain in a ligand displacement fluorescence polarization (FP) assay, in which the TAMRA-labeled PI(3,4,5)P3 complexed with Grip1 PH domain is displaced by PI(3,4,5)P3 formed in the PI3-Kα reaction resulting in a decrease in FP signal. Mouse PI3-Kα P110 and P85 subunits were co-expressed in insect cells and co-purified to homogeneity. PI(4,5)P2 were obtained from Cayman. TAMRA-labeled PI(3,4,5)P3 were from Echelon, Grip1 PH domain from Dundee and other reagents were from Sigma.
All assays were performed in a Corning solid black 96-well half area plate using LJL Analyst (Molecular Devices) at room temperature. The assay buffer contained 50 mM HEPES, pH 7.4, 150 mM NaCl, 5 mM DTT, and 0.05% CHAPS. Dry powder PI(4,5)P2 was dissolved in 50 mM TRIS, pH 8 to make 1 mM stock solution. The PI(4,5)P2 stock solution was then diluted in the assay buffer to 60 μM, and sonicated for 30 sec before use. To the assay plate, the following reagents were added in sequence: 10 μL of 60 μM PI(4,5)P2, 5 μL of 4 nM PI3-Kα, 2 μL of compound in 25% DMSO, 3 μL of mixture containing 200 μM ATP and 33 mM MgCl2. The final volume for the reaction was 20 μL. The reaction mixture was incubated at room temperature for 35 min. The reaction was then stopped by 20 μL of 20 mM EDTA. […] The FP signal was allowed to develop for 40 min before reading on a LJL analyst at excitation 535 nm and emission 580 nm.
The percentage of inhibition was calculated based on the following equation % inhibition=[1−(FPcompound−FPmax)/(FPmin−FPmax)]×100, where FPcompound is the FP reading at a given compound concentration, FPmin is the FP signal of the PI3-Kα reaction in the absence of a compound, and FPmax is the background FP signal in the absence of PI3-Kα and a compound. The IC50 was determined by fitting the FP signal vs. compound concentration to a sigmoidal dose response equation using GraphPad Prism curve fitting program.
For orientation: Polarisation of emitted light reports the rotation of a fluorescent probe.

Assay [1] has as its system PI3-K in BT20 cells (phosphorylation of AKT at serine 473). The assay is described as follows: PI3-Kα Cellular Assay (AKT Ser473 phosphorylation ELISA in BT20 cells). The assay is classed as cell-based, human. To be noted: Homo sapiens, BT-20, pAKT Ser473 ELISA, 1 hour incubation. A digest of the protocol:
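Cells seeded overnight in 0.5% FBS, then exposed 1 h at 37 °C to an 11-concentration 1:3 dilution series, in duplicate.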
In general terms: In an ELISA, binding on a coated surface is turned into a signal by an enzyme label.

PI3-Kα, sequence (P42337 whole entry, the tested form may be a part): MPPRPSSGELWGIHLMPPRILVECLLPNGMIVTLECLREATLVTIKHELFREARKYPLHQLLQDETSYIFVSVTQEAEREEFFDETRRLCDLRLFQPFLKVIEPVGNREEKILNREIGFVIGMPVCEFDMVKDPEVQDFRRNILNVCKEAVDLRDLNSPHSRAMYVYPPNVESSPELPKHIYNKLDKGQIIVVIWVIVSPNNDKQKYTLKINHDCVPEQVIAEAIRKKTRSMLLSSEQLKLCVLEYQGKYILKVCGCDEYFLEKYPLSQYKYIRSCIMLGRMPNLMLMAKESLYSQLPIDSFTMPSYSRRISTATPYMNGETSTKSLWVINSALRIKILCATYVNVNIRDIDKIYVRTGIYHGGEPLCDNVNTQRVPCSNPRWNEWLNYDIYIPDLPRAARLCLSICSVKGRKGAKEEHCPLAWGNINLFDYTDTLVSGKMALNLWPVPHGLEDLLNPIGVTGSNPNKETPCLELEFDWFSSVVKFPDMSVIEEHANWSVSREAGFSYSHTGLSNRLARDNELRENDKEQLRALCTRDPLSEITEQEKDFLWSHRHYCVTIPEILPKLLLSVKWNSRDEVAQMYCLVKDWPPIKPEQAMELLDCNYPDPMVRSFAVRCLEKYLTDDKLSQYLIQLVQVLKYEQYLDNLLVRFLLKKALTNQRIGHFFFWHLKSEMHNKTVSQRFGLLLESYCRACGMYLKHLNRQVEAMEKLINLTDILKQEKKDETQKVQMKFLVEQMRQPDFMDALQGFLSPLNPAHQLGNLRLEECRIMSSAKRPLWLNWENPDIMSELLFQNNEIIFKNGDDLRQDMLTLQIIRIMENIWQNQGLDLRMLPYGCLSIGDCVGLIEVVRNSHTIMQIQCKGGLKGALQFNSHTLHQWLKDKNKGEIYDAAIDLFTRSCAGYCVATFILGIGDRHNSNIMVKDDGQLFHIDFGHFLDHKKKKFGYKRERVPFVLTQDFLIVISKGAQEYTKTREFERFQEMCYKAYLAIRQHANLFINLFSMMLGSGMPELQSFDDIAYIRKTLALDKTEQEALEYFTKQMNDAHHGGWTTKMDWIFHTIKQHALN
PI3-Kα, sequence (P26450 whole entry partner, the tested form may be a part): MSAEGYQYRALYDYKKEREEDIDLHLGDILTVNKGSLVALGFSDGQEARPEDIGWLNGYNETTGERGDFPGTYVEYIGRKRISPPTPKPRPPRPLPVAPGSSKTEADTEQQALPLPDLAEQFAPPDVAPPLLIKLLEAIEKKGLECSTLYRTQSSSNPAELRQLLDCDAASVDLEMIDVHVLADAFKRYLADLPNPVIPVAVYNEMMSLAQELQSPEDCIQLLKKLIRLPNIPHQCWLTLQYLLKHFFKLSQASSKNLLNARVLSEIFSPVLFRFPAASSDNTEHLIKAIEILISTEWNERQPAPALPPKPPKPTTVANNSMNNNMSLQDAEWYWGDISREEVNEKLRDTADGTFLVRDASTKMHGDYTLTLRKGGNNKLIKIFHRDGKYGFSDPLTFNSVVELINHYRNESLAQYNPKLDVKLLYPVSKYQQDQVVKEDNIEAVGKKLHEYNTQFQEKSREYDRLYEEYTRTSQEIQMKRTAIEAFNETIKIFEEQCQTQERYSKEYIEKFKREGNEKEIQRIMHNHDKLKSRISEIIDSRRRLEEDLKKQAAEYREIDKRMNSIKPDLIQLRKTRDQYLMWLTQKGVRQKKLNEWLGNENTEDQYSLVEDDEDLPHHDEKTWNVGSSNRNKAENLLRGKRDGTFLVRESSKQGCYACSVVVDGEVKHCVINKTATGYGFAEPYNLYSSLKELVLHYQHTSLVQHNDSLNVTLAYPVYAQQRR

Regarding `Cc1nc(N)nc2c1cc(-c1cnn(C)c1)c(=O)n2[C@H]1CC[C@H](O)CC1` [Compound 154, 2-amino-8-(trans-4-hydroxycyclohexyl)-4-methyl-6-(1-melhyl-1H-pyrazol-4-yl)pyrido[2,3-d]pyrimidin-7(8H)-one], the IC50 – broadly, the concentration needed to halve the response being measured – was found to be 18 nM against PI3-Kα and 475 nM in assay [1].

As for `COc1ccc(-c2cc3c(C)nc(N)nc3n([C@@H]3CC[C@H](O)C3)c2=O)cn1` [Compound 155, 2-amino-8-[(1R,3S)-3-hydroxycyclopentyl]-6-(6-methoxypyridin-3-yl)-4-methylpyrido[2,3-d]pyrimidin-7(8H)-one], the IC50 at PI3-Kα amounted to 11 nM; in assay [1], 82.9 nM.

`Cc1nc(N)nc2c1cc(-c1cn[nH]c1)c(=O)n2[C@H]1CC[C@H](O)CC1` [Compound 156, 2-amino-8-(trans-4-hydroxycyclohexyl)-4-methyl-6-(1H-pyrazol-4-yl)pyrido(2,3-d]pyrimidin-7(8H)-one]: the IC50 was 6.7 nM at PI3-Kα and 169 nM in assay [1].

On to `Cc1nc(N)nc2c1cc(-c1cnc3[nH]ccc3c1)c(=O)n2[C@H]1CC[C@H](O)CC1` [Compound 158, 2-amino-8-(trans-4-hydroxycyclohexyl)-4-methyl-6-(1H-pyrrolo[2,3-b]pyridin-5-yl)pyrido[2,3-d]pyrimidin-7(8H)-one], for which the IC50 against PI3-Kα amounted to 1.3 nM; in assay [1], 31.9 nM.

Regarding `COc1ccc(-c2cc3c(C)nc(N)nc3n([C@@H]3CC[C@@H](O)C3)c2=O)cn1` [Compound 159, 2-amino-8-[(1R,3R)-3-hydroxycyclopentyl]-6-(6-methoxypyridin-3-yl)-4-methylpyrido[2,3-d]pyrimidin-7(8H)-one], the IC50 at PI3-Kα was 4.6 nM; in assay [1] it was 87.6 nM.

With `Cc1nc(N)nc2c1cc(-c1cnc3[nH]ccc3c1)c(=O)n2[C@@H]1CC[C@H](O)C1` [Compound 163, 2-amino-8-[(1R,3S)-3-hydroxycyclopentyl]-4-methyl-6-(1H-pyrrolo[2,3-b]pyridin-5-yl)pyrido[2,3-d]pyrimidin-7(8H)-one], the IC50 against PI3-Kα worked out at 1.2 nM; in assay [1] it was 20.4 nM.

As to `Cc1nc(N)nc2c1cc(-c1cnc3[nH]ccc3c1)c(=O)n2[C@@H]1CC[C@@H](O)C1` [Compound 165, 2-amino-8-[(1R,3R)-3-hydroxycyclopentyl]-4-methyl-6-(1H-pyrrolo[2,3-b]pyridin-5-yl)pyrido[2,3-d]pyrimidin-7(8H)-one], the IC50 against PI3-Kα was 1.2 nM; in assay [1], 55.8 nM.

Regarding `Cc1nc(N)nc2c1cc(Br)c(=O)n2[C@H]1CC[C@@H](O)CC1` [Compound 168, 2-amino-6-bromo-8-(cis-4-hydroxycyclohexyl)-4-methylpyrido[2,3-d]pyrimidin-7(8H)-one], the IC50 at PI3-Kα is 130 nM; in assay [1] it was 228 nM.

`Cc1nc(N)nc2c1cc(-c1ccc(F)cc1)c(=O)n2CC(C)(C)O` [Compound 170, 2-amino-6-(4-fluorophenyl)-8-(2-hydroxy-2-methylpropyl)-4-methylpyrido[2,3-d]pyrimidin-7(8H)-one]: the IC50 at PI3-Kα stood at 3400 nM; in assay [1] it was 10000 nM.

Consider `Cc1nc(N)nc2c1cc(-c1cnc3ccccc3c1)c(=O)n2CC(C)(C)O` [Compound 173, 2-amino-8-(2-hydroxy-2-methylpropyl)-4-methyl-6-quinolin-3-ylpyrido[2,3-d]pyrimidin-7(8H)-one], for which the results for the IC50 (at PI3-Kα; in assay [1]) were 270 nM and 322 nM, respectively.

In the case of `COc1ccc(-c2cc3c(C)nc(N)nc3n(C3CCC(=O)CC3)c2=O)cn1` [Compound 175, 2-amino-6-(6-methoxypyridin-3-yl)-4-methyl-8-(4-oxocyclohexyl)pyrido[2,3-d]pyrimidin-7(8H)-one], the figures for the IC50 (against PI3-Kα; in assay [1]) were 4.3 nM and 19.3 nM, respectively.

Consider `CO[C@H]1CC[C@H](n2c(=O)c(Br)cc3c(C)nc(N)nc32)CC1` [Compound 178], for which the IC50 against PI3-Kα was 31 nM; in assay [1], 64 nM.

For the compound `COc1ccc(-c2cc3c(C)nc(N)nc3n([C@H]3CC[C@H](OC)CC3)c2=O)cn1` [Compound 179, 2-Amino-8-(trans-4-methoxycyclohexyl)-6-(6-methoxypyridin-3-yl)-4-methylpyrido[2,3-d]pyrimidin-7(8H)-one], the IC50 against PI3-Kα worked out at 3.9 nM; in assay [1], 7.37 nM.

In the case of `CO[C@H]1CC[C@H](n2c(=O)c(-c3ccc(N(C)C)nc3)cc3c(C)nc(N)nc32)CC1` [Compound 182, 2-amino-6-[6-(dimethylamino)pyridin-3-yl]-8-(trans-4-methoxycyclohexyl)-4-methylpyrido[2,3-d]pyrimidin-7(8H)-one], the IC50 against PI3-Kα stood at 6.2 nM; in assay [1] it was 10.1 nM.

`Cc1nc(N)nc2c1cc(Br)c(=O)n2C1CCC(=O)CC1` [Compound 184, 2-amino-6-bromo-4-methyl-8-(4-oxocyclohexyl)pyrido[2,3-d]pyrimidin-7(8H)-one]: the IC50 against PI3-Kα turned out to be 110 nM; in assay [1], 211 nM.

On to `Cc1nc(N)nc2c1cc(-c1cn[nH]c1)c(=O)n2C1CCC(C)(O)CC1` (centres unmarked) [Compound 185, 2-amino-8-(4-hydroxy-4-methylcyclohexyl)-4-methyl-6-(1H-pyrazol-4-yl)pyrido[2,3-d]pyrimidin-7(8H)-one], for which the IC50 on PI3-Kα came out at 18 nM; in assay [1], 15.2 nM.

On to `Cc1nc(N)nc2c1cc(-c1cc[nH]n1)c(=O)n2[C@H]1CC[C@H](O)CC1` [Compound 186, 2-Amino-8-((trans)-4-hydroxycyclohexyl)-4-methyl-6-(1H-pyrazol-3-yl)pyrido[2,3-d]pyrimidin-7(8H)-one], for which the IC50 against PI3-Kα was 10 nM; in assay [1], 25.2 nM.

`CO[C@H]1CC[C@H](n2c(=O)c(-c3cc[nH]n3)cc3c(C)nc(N)nc32)CC1` [Compound 187, 2-amino-8-(trans-4-methoxycyclohexyl)-4-methyl-6-(1H-pyrazol-3-yl)pyrido[2,3-d]pyrimidin-7(8H)-one]: the figures for the IC50 (at PI3-Kα; in assay [1]) were 9.5 nM and 17.2 nM, respectively.

With `Cc1nc(N)nc2c1cc(-c1ccc(OC(C)C)nc1)c(=O)n2[C@H]1CC[C@H](O)CC1` [Compound 188, 2-amino-8(trans-4-hydroxycyclohexyl)-6-(6-isopropoxypyridin-3-yl)-4-methylpyrido[2,3-d]pyrimidin-7(8H)-one], the IC50 against PI3-Kα was determined as 9.4 nM; in assay [1], 71.8 nM.

On to `CCOc1ccc(-c2cc3c(C)nc(N)nc3n([C@H]3CC[C@H](O)CC3)c2=O)cn1` [Compound 189, 2-amino-6-(6-ethoxypyridin-3-yl)-8-(trans-4-hydroxycyclohexyl)-4-methylpyrido[2,3-d]pyrimidin-7(8H)-one], for which the results for the IC50 (at PI3-Kα; in assay [1]) were 2.7 nM and 21.2 nM, respectively.

`Cc1nc(N)nc2c1cc(-c1ccc(C#N)nc1)c(=O)n2[C@H]1CC[C@H](O)CC1` [Compound 190, 5-[2-amino-8-(trans-4-hydroxycyclohexyl)-4-methyl-7-oxo-7,8-dihydropyrido[2,3-d]pyrimidin-6-yl]pyridine-2-carbonitrile]: the IC50 amounted to 470 nM against PI3-Kα and 2690 nM in assay [1].

In the case of `Cc1nc(N)nc2c1cc(-c1cnn(C(=O)OC(C)(C)C)c1)c(=O)n2N1CCCC1` [Compound 192, Tert-butyl-4-(2-amino-4-methyl-7-oxo-8-(pyrrolidin-1-yl)-7,8-dihydropyrido[2,3-d]pyrimidin-6-yl)-1H-pyrazole-1-carboxylate], the IC50 on PI3-Kα worked out at 93 nM; in assay [1], 5.08 nM.

Regarding `Cc1nc(N)nc2c1cc(-c1cn[nH]c1)c(=O)n2CC(F)(F)F` [Compound 197, 2-amino-4-methyl-6-(1H-pyrazol-4-yl)-8-(2,2,2-trifluoroethyl)pyrido[2,3-d]pyrididin-7(8H)-one], the half-maximal inhibitory concentration (IC50) against PI3-Kα was 188 nM; in assay [1] it was 236 nM.

As to `COc1ccc(-c2cc3c(C)nc(N)nc3n(CC(F)(F)F)c2=O)cn1` [Compound 198, 2-amino-6-(6-methoxypyridin-3-yl)-4-methyl-8-(2,2,2-trifluoroethyl)pyrido[2,3-d]pyrimidin-7(8H)-one], the results for the IC50 (against PI3-Kα; in assay [1]) were 130 nM and 262 nM, respectively.

`Cc1nc(N)nc2c1cc(-c1cn[nH]c1)c(=O)n2C1CCOCC1` [Compound 199, 2-amino-4-methyl-6-(1H-pyrazol-4-yl)-8-(tetrahydro-2H-pyran-4-yl)pyrido[2,3-d]pyrimidin-7(8H)-one]: the IC50 at PI3-Kα was 18.5 nM; in assay [1], 19.9 nM.

The record behind these values is patent US8633204B2 (Pfizer Inc., priority 2006, dated 2014).
